Reference: ChEMBL document CHEMBL1145419, “Structural insight into the pharmacophore pocket of human glutamate carboxypeptidase II” (J Med Chem, 2007)

Target: Glutamate carboxypeptidase 2 (Homo sapiens, UniProt Q04609)
Sequence (Q04609 whole entry): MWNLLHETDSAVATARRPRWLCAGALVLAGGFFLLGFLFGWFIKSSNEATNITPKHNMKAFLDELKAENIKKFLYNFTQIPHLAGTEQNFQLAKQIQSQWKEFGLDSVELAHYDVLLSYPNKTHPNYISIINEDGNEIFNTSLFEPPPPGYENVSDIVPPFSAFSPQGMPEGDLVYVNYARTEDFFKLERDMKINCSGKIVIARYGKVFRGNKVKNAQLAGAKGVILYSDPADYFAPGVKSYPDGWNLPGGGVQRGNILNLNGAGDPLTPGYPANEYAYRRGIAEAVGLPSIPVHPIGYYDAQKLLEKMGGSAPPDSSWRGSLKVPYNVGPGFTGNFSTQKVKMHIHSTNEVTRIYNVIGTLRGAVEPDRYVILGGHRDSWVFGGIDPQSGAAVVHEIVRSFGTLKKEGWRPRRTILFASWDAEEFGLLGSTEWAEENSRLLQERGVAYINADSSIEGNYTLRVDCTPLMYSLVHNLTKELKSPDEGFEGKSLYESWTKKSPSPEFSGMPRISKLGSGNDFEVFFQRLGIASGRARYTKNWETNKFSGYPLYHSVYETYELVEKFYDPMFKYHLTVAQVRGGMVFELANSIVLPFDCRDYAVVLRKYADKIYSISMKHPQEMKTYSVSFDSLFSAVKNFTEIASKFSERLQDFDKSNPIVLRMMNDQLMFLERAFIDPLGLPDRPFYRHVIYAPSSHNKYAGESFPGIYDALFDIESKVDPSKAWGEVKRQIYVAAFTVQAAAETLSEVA
Description: Inhibition of human recombinant glutamate carboxypeptidase 2 by radioenzymatic assay

Row | Compound | IC50 [µM]
1 | N[C@@H](Cn1ccc(=O)[nH]c1=O)C(=O)O [(S)-WILLARDIINE] | 67
2 | N[C@@H](COP(=O)(O)O)C(=O)O [DEXFOSFOSERINE] | 523
3 | N[C@@H](CCC(=O)O)C(=O)O [GLUTAMIC ACID] | 428
4 | N[C@@H](Cn1oc(=O)[nH]c1=O)C(=O)O [QUISQUALATE] | 9.5
